US4560690A, “2-(N-substituted guanidino)-4-hetero-arylthiazole antiulcer agents” (Pfizer Inc., priority 1984, dated 1985)

Legend:
[1] = system: gastric acid secretion (pentagastrin-stimulated acid output from the gastric pouch); experiment: Gastric acid antisecretory activity in pentagastrin-stimulated conscious Heidenhain pouch dogs; format: in vivo; details: Canis lupus familiaris; for inhibition in vivo at up to 2 mg/kg: at the same (oral 2 mg/kg) or a lower dose; for inhibition in vivo at 2 mg/kg: oral dose of 2 mg/kg, Heidenhain pouch dogs, pentagastrin
Experimental: The gastric acid antisecretory activity of compounds of the present invention was determined in overnight fasted, conscious Heidenhain pouch dogs. Pentagastrin (Pentavolon-Ayerst) was used to stimulate acid output by continuous infusion into a superficial leg vein at doses earlier determined to stimulate near maximal acid output from the gastric pouch. Gastric juice was collected at 30 minute intervals following the start of a pentagastrin infusion and measured to the nearest 0.1 ml. Ten collections were taken for each dog during an experiment. Acid concentration was determined by tritrating 1.0 ml of gastric juice to pH 7.4 with 0.1N sodium hydroxide using an Autoburette and a glass electrode pH meter (Radiometer).
Drug or vehicle was given intravenously or orally 90 minutes following the start of the pentagastrin infusion, at a dose of 2 mg/kg or less. Gastric acid antisecretory effects were calculated by comparing the lowest acid output after drug administration with the mean acid output immediately before drug.

histamine-H2 receptor = target: T1, histamine-H2 receptor (Cavia porcellus, UniProt P47747); experiment: Histamine-H2 antagonist activity in isolated guinea pig right atria (pA2); format: cell-based, Guinea pigs; details: Krebs-Henseleit buffer pH 7.4, 32°±2° C., histamine dose-response, * tested as the dihydrobromide salt, read-out: pA2 (apparent dissociation constant of the H2-receptor antagonist) (converted)
T1 construct: the heart removed and the right atria dissected free; from tissue; host or cells: guinea pig right atria (isolated, spontaneously beating)
Experimental: The histamine-H2 antagonist activity of compounds of the present invention was determined by the following procedure:
Guinea pigs are killed rapidly with a blow to the head, the heart removed and the right atria dissected free. Atria are suspended, isometrically, in a temperature-controlled (32°±2° C.) tissue bath (10 ml) containing oxygenated (95% O2; 5% CO2) Krebs-Henseleit buffer (pH 7.4) and are allowed to stabilize approximately one hour during which time the tissue bath is flushed several times. Individual atrial contractions are followed with a force-displacement transducer connected to a cardiotachometer and Grass polygraph recorder. After obtaining a dose-response curve to histamine, the bath containing each atrium is flushed several times with fresh buffer and the atria reequilibrated to basal rates. Following the return to basal rate, test compounds are added at selected final concentrations and the histamine dose-response curve is again determined in the presence of antagonist. Results are expressed as dose-ratios, the ratio of histamine concentrations required to produce one-half of maximal stimulation in the presence and absence of antagonist, and the apparent dissociation constant of the H2 -receptor antagonist pA2, is determined.

[2] = system: ethanol-induced gastric ulceration; experiment: Inhibition of ethanol-induced ulceration in rats; format: in vivo, male rats; details: for cytoprotection (inhibition of ethanol-induced ulceration): same dosage, 30 mg/kg oral
Experimental: The antiulcer activity of the products of this invention was also determined by an ethanol-induced rat ulcer assay. In this test, overnight fasted male rats are given drug (at 30 or 3 mg/kg) or water orally fifteen minutes prior to an orally administered dose of absolute ethanol (1.0 ml). One hour after the ethanol challenge the animals (8/group) are killed and the stomachs examined for the presence of lesions. After sacrifice the abdomen is opened and a locking hemostat placed at the pylorus. Six ml of a 4% solution of formaldehyde was injected into the stomach with a gastric feeding tube and a second locking hemostat was used to seal the esophagus. The stomach was removed, opened along the greater curvature and examined for ulceration.
The scoring system used to quantitate the ethanol-induced lesions is given below.
For each group of animals an ulcer index is calculated as follows:
Ulceration Index=(the sum of the scores of the group)×(the sum of the number of ulcers in the group)×(the fraction of the group having any incidence of ulceration).
The percentage inhibition of ulcers is calculated as follows:
% Inhibition=100×[(ulcer index controls)-(ulcer index
drug-treated)].div.(ulcer index controls).

[3] = * tested as the dihydrobromide salt
[4] = oral dose of 3 mg/kg, * tested as the dihydrobromide salt
[5] = oral dose of 30 mg/kg, fifteen minutes prior to absolute ethanol

T1 sequence (P47747 whole entry): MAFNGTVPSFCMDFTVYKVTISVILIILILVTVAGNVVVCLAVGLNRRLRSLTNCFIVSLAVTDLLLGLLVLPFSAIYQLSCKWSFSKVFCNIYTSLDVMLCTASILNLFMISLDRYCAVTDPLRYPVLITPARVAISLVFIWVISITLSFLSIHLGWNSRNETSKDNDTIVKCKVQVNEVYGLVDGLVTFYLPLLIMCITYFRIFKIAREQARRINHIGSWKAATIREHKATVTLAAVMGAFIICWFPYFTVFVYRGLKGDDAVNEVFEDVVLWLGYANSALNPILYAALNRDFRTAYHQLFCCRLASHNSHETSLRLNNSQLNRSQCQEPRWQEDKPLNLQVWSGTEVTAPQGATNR

| SMILES | Kb (histamine-H2 receptor) | inhibition in vivo at 0.1 mg/kg ([1]; iv, dose of 0.1 mg/kg (i.v.), * tested as the dihydrobromide salt) | inhibition in vivo at up to 2 mg/kg [1, 3] | inhibition of ethanol-induced ulceration [2, 4] | cytoprotection (inhibition of ethanol-induced ulceration) [2] | inhibition in vivo at 2 mg/kg [1] | inhibition of ethanol-induced ulceration [2, 5] |
| --- | --- | --- | --- | --- | --- | --- | --- |
| CCCCCCNC(N)=Nc1nc(-c2c[nH]c(C)n2)cs1 [Example 5*] | ≤ 63.1 nM | 58% | ≥ 64% |  |  |  |  |
| Cc1nc(-c2csc(NC(=N)NCc3ccccc3)n2)c[nH]1 [Example 6a, N-[4-(2-methylimidazol-4-yl)thiazol-2-yl]-N'-benzylguanidine] | ≤ 63.1 nM |  |  |  |  |  |  |
| CCCCCCC(C)NC(=N)Nc1nc(-c2c[nH]c(C)n2)cs1 (stereo not shown) [Example 6b, N-[4-(2-methylimidazol-4-yl)thiazol-2-yl]-N'-2-octylguanidine] | ≤ 63.1 nM |  | ≥ 64% | at least 40% |  |  |  |
| CCCCCCC(C)NC(=N)Nc1nc(-c2c[nH]c(C)n2)cs1 (stereo not shown) [Example 6j, N-[4-(2-methylimidazol-4-yl)thiazol-2-yl]-N'-2-octylguanidine] |  |  |  |  |  |  | at least 77% |
| Cc1nc(-c2csc(NC(=N)NCc3ccccc3)n2)c[nH]1 [Example 6l, N-[4-(2-methylimidazol-4-yl)thiazol-2-yl]-N'-benzylguanidine] |  |  | ≥ 64% | at least 40% |  |  | at least 77% |
| Cc1nc(-c2csc(N=C(N)NCCCCc3ccccc3)n2)c[nH]1 [Example 6o] |  |  |  |  | ≥ 90% | ≥ 24% | at least 77% |

Second part, led by results:

| Kb (histamine-H2 receptor) | SMILES | inhibition in vivo at 0.1 mg/kg ([1]; iv, dose of 0.1 mg/kg (i.v.), * tested as the dihydrobromide salt) | inhibition in vivo at up to 2 mg/kg [1, 3] | inhibition of ethanol-induced ulceration [2, 4] | cytoprotection (inhibition of ethanol-induced ulceration) [2] | inhibition in vivo at 2 mg/kg [1] | inhibition of ethanol-induced ulceration [2, 5] |
| --- | --- | --- | --- | --- | --- | --- | --- |
| ≤ 126 nM | CCCCCNC(N)=Nc1nc(-c2c[nH]c(C)n2)cs1 [Example 6c] |  | ≥ 64% |  | ≥ 90% |  |  |
| ≤ 63.1 nM | CCCCCCCNC(N)=Nc1nc(-c2c[nH]c(C)n2)cs1 [Example 6f] |  |  |  | ≥ 90% | ≥ 24% | at least 77% |
| ≤ 126 nM | CCCCCCCCNC(N)=Nc1nc(-c2c[nH]c(C)n2)cs1 [Example 6g] |  |  |  |  | ≥ 24% |  |
| ≤ 63.1 nM | Cc1nc(-c2csc(N=C(N)NCCc3ccccc3)n2)c[nH]1 [Example 6m] |  | ≥ 64% |  |  |  | at least 77% |
| ≤ 63.1 nM | Cc1nc(-c2csc(N=C(N)NCCCc3ccccc3)n2)c[nH]1 [Example 6n] |  |  |  |  | ≥ 24% |  |
